Measurements reported in paper PMC7481839, “Switchable foldamer ion channels with antibacterial activity” (Chemical Science, 2020).
Where a SMILES comes first, the peptide text is derived from it.

Assay: Lucigenin assay of Cl− transport in vesicles
Format: biochemical
Settings: 10 µM compound, interior NaNO3 200 mM, exterior NaCl (2 M), 0.762 mM lipid, 25°C, first-order curve fit
Method: To confirm that chloride could pass through the bilayers, lucigenin assays[5a] were performed for 2, Cu(II)[1]Cl2 and Cu(II)[2]Cl2 (Fig. 5 and ESI, Fig. S10 ^†). The same lipids were used as for the HPTS assays and lucigenin was encapsulated with NaNO3 in the vesicles.
Figure S9: Ionophoric activity determined through an HPTS assay in the presence of NaCl (100 mM) for: 2 (10 µM) in the absence (pink inverted triangles) and presence of FCCP (20 µM, blue triangles) and Cu(II)[2]Cl2 (6 µM) in the absence (red circles) and presence of FCCP (20 µM, black squares). Base pulse at 1 min, TX-100 added at 7 min.
5.4 Preparation of large unilamellar vesicles for lucigenin assays […]
Lucigenin assays procedure and fluorescence normalisation were developed by a modification of published methods.10 An aliquot of the vesicle stock solution (100 μL) w as diluted to 1.9 mL with 200 mM NaNO 3 in water (pH = 7.4) (final lipid co ncentration in cuvette 0.762 mM). […] The cuvette was then placed into a Varian Cary Eclipse fluorescence spectrophotometer in the moderate stirring mode. The fluorescence emission at 505 nm was observed, resulting from excitation at 455 nm, over a period of seven minutes (420 seconds) at 25°C. […] The change in fluorescence was followed for six minutes before final lysis of the vesicles at seven minutes (420 s) by adding an aliquot of a 10 % v/v solution of Triton X-100 […]

With `CC(C)(NC(=O)C(C)(C)NC(=O)C(C)(C)NC(=O)C(C)(C)NC(=O)C(C)(C)n1cc(CN(Cc2ccccn2)Cc2ccccn2)nn1)C(=O)NC(C)(C)C(=O)NC(C)(C)C(=O)NC(C)(C)C(=O)OCC[Si](C)(C)C` [foldamer 2] (HELM PEPTIDE1{[CC(C)(C(=O)[*:2])n1cc(CN(Cc2ccccn2)Cc2ccccn2)nn1].[Aib].[Aib].[Aib].[Aib].[Aib].[Aib].[Aib].[C[Si](C)(C)CCO[*:1]]}$$$$V2.0) the “kobs of Cl− transport (lucigenin assay)” value was 0.0052 s⁻¹.
